Among the data in US20230355622A1, “METHODS OF CHEMOVACCINATION AGAINST PLASMODIUM INFECTIONS” (Merck Sharp & Dohme LLC, priority 2020, published 2023) are EC50 values, retold here.

The test system of the first assay is parasite. Put plainly: Parasite LDH growth assay (Parasite Assay), antiparasite potency. The assay is classed as cell-based. To be noted: 72 h, parasite LDH growth assay, ring stage parasites, 72 hours incubation at 37° C.; read-out: EC50. Put shortly: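 Growth was read by an LDH assay after a freeze–thaw cycle (−80 °C overnight, 4 h thaw at RT). Before that, parasites grew with compound for 72 h at 37 °C under gassed, humidified conditions. The input was a ring-stage culture adjusted to 0.7% parasitemia and 2% haematocrit in serum (5%)/albumax (0.5%)-supplemented RPMI-Hepes.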
As to `CCC1(CC)CC(=O)N([C@@H]2CCOc3ccc(C(=O)N[C@@H]4c5cc(Cl)ccc5OC(C)(C)[C@H]4O)cc32)C(=N)N1` [Example 19A, (R)-N-((3S,4R)-6-chloro-3-hydroxy-2,2-dimethylchroman-4-yl)-4-(4,4-diethyl-2-imino-6-oxotetrahydropyrimidin-1(2H)-yl)chromane-6-carboxamide], the half-maximal effective concentration (EC50) came to 0.3 nM.

As for `CC1(C)CC(=O)N([C@@H]2CCOc3ccc(C(=O)N[C@@H]4c5cc(F)ccc5OC(C)(C)[C@H]4O)cc32)C(=N)N1` [Example 189, (4R)-N-[(3S,4R)-6-fluoro-3-hydroxy-2,2-dimethyl-chroman-4-yl]-4-(2-imino-4,4-dimethyl-6-oxo-hexahydropyrimidin-1-yl)chromane-6-carboxamide], the EC50 amounted to 1 nM.

Turning to `COC1COc2ccc(C(=O)N[C@@H]3c4ccccc4C[C@H]3O)cc2C1N1C(=N)NC(C)(C)CC1=O` (stereo partly drawn) [Example 110, N-[(1R,2R)-2-hydroxyindan-1-yl]-4-(2-imino-4,4-dimethyl-6-oxo-hexahydropyrimidin-1-yl)-3-methoxy-chromane-6-carboxamide], the EC50 turned out to be 60 nM.

For `CCC1(CC)CC(=O)N([C@H]2c3cc(C(=O)N[C@H]4c5ccccc5C(F)(F)[C@@H]4O)ccc3O[C@@]2(C)COC)C(=N)N1` [Example 291, (2R,3S)-3-(4,4-diethyl-2-imino-6-oxo-hexahydropyrimidin-1-yl)-N-[(1S,2R)-3,3-difluoro-2-hydroxy-indan-1-yl]-2-(methoxymethyl)-2-methyl-3H-benzofuran-5-carboxamide], the EC50 was found to be 240 nM.

As for `CCC1(CC)CC(=O)N(C2c3cc(C(=O)N[C@@H]4c5ccccc5C[C@]4(C)O)ccc3OCC2OC)C(=N)N1` (stereo partly drawn) [Example 213, 4-(4,4-diethyl-2-imino-6-oxo-hexahydropyrimidin-1-yl)-N-[(1R,2S)-2-hydroxy-2-methyl-indan-1-yl]-3-methoxy-chromane-6-carboxamide], the half-maximal effective concentration (EC50) is 9 nM.

In the case of `CCC1(CC)CC(=O)N([C@@H]2CCCOc3ccc(C(=O)N[C@@H]4c5ccccc5OC(C)(C)[C@H]4O)cc32)C(=N)N1` [Example 248, (5R)-5-(4,4-diethyl-2-imino-6-oxo-hexahydropyrimidin-1-yl)-N-[(3S,4R)-3-hydroxy-2,2-dimethyl-chroman-4-yl]-2,3,4,5-tetrahydro-1-benzoxepine-7-carboxamide], the EC50 is 0.8 nM.

For the compound `CC[C@]1(C)CC(=O)N([C@H]2c3cc(C(=O)N[C@@H]4c5ccccc5C[C@@]4(C)O)ccc3OC[C@@H]2COC)C(=N)N1` [Example 202, (3S,4R)-4-[(4R)-4-ethyl-2-imino-4-methyl-6-oxo-hexahydropyrimidin-1-yl]-N-[(1R,2R)-2-hydroxy-2-methyl-indan-1-yl]-3-(methoxymethyl)chromane-6-carboxamide], the half-maximal effective concentration (EC50) was found to be 0.8 nM.

Regarding `CCC1C[C@@H](N2C(=N)NC(CC)(CC)CC2=O)c2cc(C(=O)NC3c4ccccc4OC(C)(C)C3O)ccc2O1` (single isomer, unassigned) [Example 13A], the EC50 turned out to be 0.8 nM.

Regarding `CC[C@]1(C)CC(=O)N([C@@H]2CCOc3ccc(C(=O)N[C@@H]4c5cc(F)ccc5OC(C)(C)[C@H]4O)cc32)C(=N)N1` [Example 224, (4R)-4-[(4R)-4-ethyl-2-imino-4-methyl-6-oxo-hexahydropyrimidin-1-yl]-N-[(3S,4R)-6-fluoro-3-hydroxy-2,2-dimethyl-chroman-4-yl]chromane-6-carboxamide], the EC50 amounted to 0.3 nM.

Take `CCC1(CC)CC(=O)N([C@H]2c3cc(C(=O)N[C@@H]4c5ccccc5OC(C)(C)[C@H]4O)ccc3OC[C@]2(C)OC)C(=N)N1` [Example 296, (3R,4S)-4-(4,4-diethyl-2-imino-6-oxo-hexahydropyrimidin-1-yl)-N-[(3S,4R)-3-hydroxy-2,2-dimethyl-chroman-4-yl]-3-methoxy-3-methyl-chromane-6-carboxamide]: the EC50 turned out to be 0.3 nM.

Turning to `CC[C@]1(C)CC(=O)N([C@H]2c3cc(C(=O)N[C@@H]4c5ccccc5OC(C)(C)[C@H]4O)ccc3C[C@H]2C)C(=N)N1` [Example 168, (2R,3R)-3-[(4R)-4-ethyl-2-imino-4-methyl-6-oxo-hexahydropyrimidin-1-yl]-N-[(3S,4R)-3-hydroxy-2,2-dimethyl-chroman-4-yl]-2-methyl-indane-5-carboxamide], the half-maximal effective concentration (EC50) amounted to 0.4 nM.

As to `CC[C@@]1(C)CC(=O)N([C@@H]2CCOc3ccc(C(=O)N[C@@H]4c5cc(F)ccc5OC(C)(C)[C@H]4O)cc32)C(=N)N1` [Example 225, (4R)-4-[(4S)-4-ethyl-2-imino-4-methyl-6-oxo-hexahydropyrimidin-1-yl]-N-[(3S,4R)-6-fluoro-3-hydroxy-2,2-dimethyl-chroman-4-yl]chromane-6-carboxamide], the 50% effective concentration (EC50) was 0.8 nM.

On to `CCC1(CC)CC(=O)N([C@H]2c3cc(C(=O)N[C@@H]4c5ccccc5C[C@H]4O)ccc3OC[C@H]2C)C(=N)N1` [Example 118, (3S,4R)-4-(4,4-diethyl-2-imino-6-oxo-hexahydropyrimidin-1-yl)-N-[(1R,2R)-2-hydroxyindan-1-yl]-3-methyl-chromane-6-carboxamide], for which the EC50 was determined as 0.9 nM.

Take `CCC1C[C@@H](N2C(=N)NC(CC)(CC)CC2=O)c2cc(C(=O)NC3c4ccccc4OC(C)(C)C3O)ccc2O1` (single isomer, unassigned) [Example 13B]: the EC50 was 54 nM.

With `CCC1(CC)CC(=O)N([C@@H]2CCOc3ccc(C(=O)N[C@@H]4c5cc(Br)ccc5OC(C)(C)[C@H]4O)cc32)C(=N)N1` [Example 15A, (R)-N-((3S,4R)-6-bromo-3-hydroxy-2,2-dimethylchroman-4-yl)-4-(4,4-diethyl-2-imino-6-oxotetrahydropyrimidin-1(2H)-yl)chromane-6-carboxamide], the EC50 is 0.3 nM.

As for `CC(C)[C@]1(C)CC(=O)N([C@@H]2CCOc3ccc(C(=O)NC4c5ccccc5OC(C)(C)C4O)cc32)C(=N)N1` (single isomer, unassigned) [Example 11A], the EC50 was determined as 0.9 nM.

With `CCC1(CC)CC(=O)N([C@H]2c3cc(C(=O)N[C@@H]4c5ccccc5C[C@H]4O)ccc3OC[C@@H]2C)C(=N)N1` [Example 120, (3R,4R)-4-(4,4-diethyl-2-imino-6-oxo-hexahydropyrimidin-1-yl)-N-[(1R,2R)-2-hydroxyindan-1-yl]-3-methyl-chromane-6-carboxamide], the EC50 is 0.8 nM.

In the case of `CCC1(CC)CC(=O)N([C@@H]2Cc3ccc(C(=O)N[C@@H]4c5ccccc5C[C@H]4O)cc32)C(=N)N1` [Example 83, (8R)-8-(4,4-diethyl-2-imino-6-oxo-hexahydropyrimidin-1-yl)-N-[(1R,2R)-2-hydroxyindan-1-yl]bicyclo[4.2.0]octa-1(6),2,4-triene-3-carboxamide], the EC50 came out at 20 nM.

Regarding `CC[C@]1(C)CC(=O)N([C@H]2c3cc(C(=O)N[C@@H]4c5ccccc5OC(C)(C)[C@H]4O)ccc3OCC2(C)OC)C(=N)N1` (stereo partly drawn) [Example 284, 4-[(4R)-4-ethyl-2-imino-4-methyl-6-oxo-hexahydropyrimidin-1-yl]-N-[(3S,4R)-3-hydroxy-2,2-dimethyl-chroman-4-yl]-3-methoxy-3-methyl-chromane-6-carboxamide], the EC50 stood at 8.5 nM.

For `CCC1(CC)CC(=O)N([C@H]2c3cc(C(=O)N[C@@H]4c5ccccc5OC(C)(C)[C@H]4O)ccc3OC[C@@H]2COC)C(=N)N1` [Example 299, (3S,4R)-4-(4,4-diethyl-2-imino-6-oxo-hexahydropyrimidin-1-yl)-N-[(3S,4R)-3-hydroxy-2,2-dimethyl-chroman-4-yl]-3-(methoxymethyl)chromane-6-carboxamide], the EC50 was determined as 0.8 nM.

`CCC1(CC)CC(=O)N([C@@H]2CCOc3c(Cl)cc(C(=O)N[C@@H]4c5ccccc5OC(C)(C)[C@H]4O)cc32)C(=N)N1` [Example 29A, (R)-8-chloro-4-(4,4-diethyl-2-imino-6-oxotetrahydropyrimidin-1(2H)-yl)-N-((3S,4R)-3-hydroxy-2,2-dimethylchroman-4-yl)chromane-6-carboxamide]: the concentration for a half-maximal effect (EC50) came to 1 nM.

The same assay, now with this note: parasite LDH growth assay, ring stage parasites, 72 hours incubation at 37° C.; read-out: EC50.
For the compound `CCC1(CC)CC(=O)N([C@@H]2CCOc3ccc(C(=O)NC4c5ccccc5OCC4O)cc32)C(=N)N1` (stereo partly drawn) [Example 8A, (4R)-4-(4,4-diethyl-2-imino-6-oxotetrahydropyrimidin-1(2H)-yl)-N-(3-hydroxychroman-4-yl)chromane-6-carboxamide], the EC50 came to 10 nM.

Turning to `CCC1(CC)CC(=O)N([C@H]2c3cc(C(=O)N[C@@H]4c5ccccc5OC(C)(C)[C@H]4O)ccc3OCC2OC)C(=N)N1` (stereo partly drawn) [Example 67B, (3R,4S)-4-(4,4-diethyl-2-imino-6-oxotetrahydropyrimidin-1(2H)-yl)-N-((3S,4R)-3-hydroxy-2,2-dimethylchroman-4-yl)-3-methoxychromane-6-carboxamide], the EC50 was 0.8 nM.

With `CCC1(CC)CC(=O)N([C@@H]2CCOc3ccc(C(=O)NC4c5ccccc5CC4(O)C(F)(F)F)cc32)C(=N)N1` (stereo partly drawn) [Example 272C, (4R)-4-(4,4-diethyl-2-imino-6-oxo-hexahydropyrimidin-1-yl)-N-[2-hydroxy-2-(trifluoromethyl)indan-1-yl]chromane-6-carboxamide], the EC50 was determined as 0.9 nM.

Regarding `CCC1(CC)CC(=O)N([C@H]2c3cc(C(=O)N[C@@H]4c5ccccc5C[C@H]4O)ccc3OCC2OC)C(=N)N1` (stereo partly drawn) [Example 72A, (3R,4S)-4-(4,4-diethyl-2-imino-6-oxotetrahydropyrimidin-1(2H)-yl)-N-((1R,2R)-2-hydroxy-2,3-dihydro-1H-inden-1-yl)-3-methoxychromane-6-carboxamide], the EC50 stood at 0.5 nM.

Regarding `CCC1(CC)CC(=O)N([C@@H]2CCOc3ccc(C(=O)NC4c5ccccc5OC4(C)COC)cc32)C(=N)N1` (stereo partly drawn) [Example 64B, (4R)-4-(4,4-diethyl-2-imino-6-oxotetrahydropyrimidin-1(2H)-yl)-N-(2-(methoxymethyl)-2-methyl-2,3-dihydrobenzofuran-3-yl)chromane-6-carboxamide], the half-maximal effective concentration (EC50) turned out to be 0.9 nM.

In general, EC50 refers to the concentration that produces a half-maximal response.
